According to patent US9187450B2, “Substituted pyridine compound” (Daiichi Sankyo Company, Limited, priority 2010, dated 2015):

biological target: recombinant human CETP protein (Homo sapiens (Human), UniProt P11597); test: Test of CETP inhibition activity (in vitro, buffer-based); type: biochemical; settings: reconstituted HDL with [14C]-labeled cholesteryl ester, acceptor lipoprotein, 37° C.
Method in brief: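 Reconstituted HDL carrying [14C]-cholesteryl ester served as donor and plasma IDL/LDL (density 1.019–1.063) as acceptor, with 4.5 ng recombinant CETP in PBS pH 7.4. Compound (DMSO stocks 0.15–500 μM) was preincubated with CETP and acceptor for 60 min at 37 °C, then reacted with donor for 60 min. HDL-fraction radioactivity after MgCl2/dextran sulfate precipitation gave % inhibition and IC50.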

Chain of recombinant human CETP protein (P11597 18-493): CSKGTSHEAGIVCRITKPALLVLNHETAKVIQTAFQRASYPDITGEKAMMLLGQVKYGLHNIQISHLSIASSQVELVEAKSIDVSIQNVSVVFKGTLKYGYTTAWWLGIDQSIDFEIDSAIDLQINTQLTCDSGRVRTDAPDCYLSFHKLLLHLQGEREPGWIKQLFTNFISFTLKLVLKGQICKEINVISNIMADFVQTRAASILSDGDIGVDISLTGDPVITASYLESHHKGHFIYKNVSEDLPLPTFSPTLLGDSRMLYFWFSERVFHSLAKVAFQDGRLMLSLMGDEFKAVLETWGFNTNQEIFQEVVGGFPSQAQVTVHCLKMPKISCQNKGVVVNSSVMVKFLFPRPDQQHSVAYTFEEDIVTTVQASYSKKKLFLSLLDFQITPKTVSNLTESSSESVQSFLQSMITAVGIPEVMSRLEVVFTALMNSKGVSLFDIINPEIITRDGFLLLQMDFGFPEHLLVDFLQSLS

IC50 | SMILES
88 nM | Cc1noc(-c2cnc(N3CCC(c4nc5c(c(C6CCC(F)(F)CC6)c4[C@@H](F)c4ccc(C(F)(F)F)cc4)[C@@H](O)CC(C)(C)C5)CC3)nc2)n1 (single isomer, unassigned) [Example 35, 4-(4,4-Difluorocyclohexyl)-3-{fluoro[4-(trifluoromethyl)phenyl]methyl}-7,7-dimethyl-2-{1-[5-(3-methyl-1,2,4-oxadiazol-5-yl)pyrimidin-2-yl]piperidin-4-yl}-5,6,7,8-tetrahydroquinolin-5-ol]
28 nM | CN(CCO)c1cnc(N2CCC(c3nc4c(c(C5CCC(F)(F)CC5)c3[C@@H](F)c3ccc(C(F)(F)F)cc3)[C@@H](O)CC(C)(C)C4)CC2)nc1 (single isomer, unassigned) [Example 56, 4-(4,4-Difluorocyclohexyl)-3-{fluoro[4-(trifluoromethyl)phenyl]methyl}-2-(1-{5-[(2-hydroxyethyl)(methyl)amino]pyrimidin-2-yl}piperidin-4-yl)-7,7-dimethyl-5,6,7,8-tetrahydroquinolin-5-ol]
54 nM | CC(C)Cc1cnc(N2CCC(c3nc4c(c(C5CCC(F)(F)CC5)c3[C@@H](F)c3ccc(C(F)(F)F)cc3)[C@@H](O)CC(C)(C)C4)CC2)nc1 (single isomer, unassigned) [Example 24, (−)-4-(4,4-Difluorocyclohexyl)-3-{fluoro[4-(trifluoromethyl)phenyl]methyl}-7,7-dimethyl-2-{1-[5-(2-methylpropyl)pyrimidin-2-yl]piperidin-4-yl}-5,6,7,8-tetrahydroquinolin-5-ol]
54 nM | CC(C)/C=C/c1cnc(N2CCC(c3nc4c(c(C5CCC(F)(F)CC5)c3[C@@H](F)c3ccc(C(F)(F)F)cc3)[C@@H](O)CC(C)(C)C4)CC2)nc1 (single isomer, unassigned) [Example 34, (−)-4-(4,4-Difluorocyclohexyl)-3-{fluoro[4-(trifluoromethyl)phenyl]methyl}-7,7-dimethyl-2-(1-{5-[(1E)-3-methylbut-1-ene-1-yl]pyrimidin-2-yl}piperidin-4-yl)-5,6,7,8-tetrahydroquinolin-5-ol]
32 nM | CC1(C)Cc2nc(C3CCN(c4ncc(S(C)(=O)=O)cn4)CC3)c([C@@H](F)c3ccc(C(F)(F)F)cc3)c(C3CCC(F)(F)CC3)c2[C@@H](O)C1 (single isomer, unassigned) [Example 54, (−)-4-(4,4-Difluorocyclohexyl)-3-{fluoro[4-(trifluoromethyl)phenyl]methyl}-7,7-dimethyl-2-{1-[5-(methylsulphonyl)pyrimidin-2-yl]piperidin-4-yl}-5,6,7,8-tetrahydroquinolin-5-ol]
